Reference: article PMC3901259, “Characterisation of the Metabolites of 1,8-Cineole Transferred into Human Milk: Concentrations and Ratio of Enantiomers” (Metabolites, 2013)
Like-named read-outs stand apart in the source and are kept apart here. Blank lines part the entries; values can stand above or below the compound they belong to.

Tests used:
[1] = set-up: method as in PMID 22405404; details: cited from earlier work
rats = tested on: rats; set-up: method as in PMID 6068552; details: cited from earlier work
[2] = Quantification of 1,8-cineole metabolites in human milk (SAFE, GC-MS, internal standard and matrix calibration) after oral intake of 100 mg 1,8-cineole; type: in vivo; details: for Absolute concentration in human milk: single determination
From the text: Human milk samples were provided voluntarily by breastfeeding mothers after intake of the non-prescription pharmaceutical Soledum® (Klosterfrau Healthcare Group, Cologne, Germany). Before the beginning of the study, the participants were informed verbally, as well as in written form, about the study procedure and purpose and they were told that withdrawing from the study was possible at any time without giving any reason. All volunteers gave written consent to the analysis of their milk samples and anonymous publication of the resulting data. The Ethical Committee of the Medical Faculty, University Erlangen-Nuremberg, approved the experimental procedures. Each participant was handed a copy of the Soldeum® package instructions and was advised to read it before capsule intake. They were also advised to withdraw from the study if any negative reactions such as medication allergies or interactions with other drugs they were taking were to be expected. Additionally, the volunteers were informed verbally about potential effects of the pharmaceutical preparation on breastfeeding, i.e. the risk of an altered milk flavour and rejection of the milk by the nursling. Accordingly, if this would happen, the mothers were recommended to feed their babies with stored human milk or formula milk products.
The milk donors were between the ages of 29 and 40 years (mean 34 years). During their participation in the study, their breast milk production had to be normal and in excess of their infants' needs, with no breast infections and no overall medical complaints present. Five participants were primiparous, three were multiparous and the breast milk samples were from 19 weeks to 19 months postpartum. For sampling, either electrical or mechanical breast pumps or manual expression techniques were applied, resulting in sample volumes between 10 and 100 mL. The samples were immediately subjected to sample preparation after a maximum storage time of five hours at 7 °C or were stored in a freezer at −20 °C for up to five days.
The participating volunteers were asked to ingest one Soledum® capsule, containing 100 mg 1,8-cineole, and to wait until they themselves or another person began to notice the eucalyptus-like odour on their breath. […] The donors were instructed to keep notes on the dates of capsule intake, first eucalyptus-like odour on their breath and exact sampling time. Unfortunately it was difficult for some mothers to detect the smell on their breath so they expressed the samples after some time without having noticed the smell, or reported having been unsure about the smell. […] Some of the donors repeated the whole experiment and some expressed more than one sample after the capsule intake, resulting in 14 samples in total, from 8 different mothers.
Extracts containing the volatile fraction of the human milk samples were prepared by Solvent Assisted Flavour Evaporation (SAFE) after addition of deuterated 1,8-cineole as internal standard (solution in dichloromethane), followed by 10 min of stirring, then another addition of dichloromethane (50% v/v), and 30 min of stirring. The resulting stable phase was distilled in the SAFE-apparatus at 50 °C and approximately 1x10^−4 mbar. The volatile fraction of the samples was frozen with liquid nitrogen. After thawing, it consisted of two phases, formed by the dichloromethane and by the water out of the milk. The water phase was extracted three times with dichloromethane, and the solvent phases were combined and dried over anhydrous Na2SO4. Finally the sample extracts were concentrated by microdistillation according to Bemelmans at 50 °C to a total volume of 50 to 200 μL.
For GC-MS analyses, an Agilent MSD quadrupole system (GC 7890A with MSD 5975C, Agilent Technologies, Waldbronn, Germany) coupled with a CIS 4C (cooled injection system) and an MPS 2 auto-sampler (Gerstel GmbH & Co. KG, Duisburg, Germany) were used. […]

[3] = Determination of the ratios of enantiomers of chiral metabolites in human milk on chiral GC capillaries; type: in vivo; details: human milk samples B-1, B-2b and B-2c; excluded from Table 3
From the text: The separation of the chiral metabolites of 1,8-cineole was successfully achieved using different β- or γ-cyclodextrin-based stationary phases (Rt-bDEXsa, Rt-bDEXse, Rt-bDEXsm and Rt-yDEXsa) for gas chromatographic analysis. Table S1, in the supplementary material, lists the usable separation phases and the respective retention indices (determined according to van den Dool and Kratz) for each pair of enantiomers. It was therefore decided to use the following capillaries for the analysis of the human milk samples: Rt-bDEXsm for separation of 2,3-dehydro-, α2,3-epoxy-, 2-oxo-, 3-oxo- and 9-hydroxy-1,8-cineole, and Rt-yDEXsa for separation of α2-hydroxy-, α3-hydroxy- and β2-hydroxy-1,8-cineole, under the GC conditions described in the experimental section.
For GC-MS analyses, an Agilent MSD quadrupole system (GC 7890A with MSD 5975C, Agilent Technologies, Waldbronn, Germany) coupled with a CIS 4C (cooled injection system) and an MPS 2 auto-sampler (Gerstel GmbH & Co. KG, Duisburg, Germany) were used. Data collection and analysis were performed with the MSD ChemStation E.02.00.493 (Agilent Technologies, Inc.) software. Quantification experiments were carried out on DB-FFAP and DB-5 capillaries (30 m length, 0.25 mm inner diameter, 0.25 µm film thickness, Agilent J&W GC Columns, USA), and for monitoring of the ratio of enantiomers the chiral capillaries Rt-bDEXsa, Rt-bDEXse, Rt-bDEXsm and Rt-yDEXsa (30 m length, 0.32 mm inner diameter, 0.25 µm film thickness, Restek GmbH, Bad Homburg, Germany) were utilised. Pre-columns of uncoated, deactivated fused silica (0.53 mm inner diameter, 0.5 to 3.5 m length) were used to ensure that no potentially present low-volatile residues could contaminate the analytical capillaries. The temperature programme of the column oven was as follows: 40 °C for 2 min, 4 °C/min up to 170 °C, 40 °C/min up to 230 °C (Rt-DEX capillaries), 240 °C (DB-FFAP) and 250 °C (DB-5), respectively, and hold time at end temperature of 5 to 10 min. As carrier gas, helium was used at a flow rate of 1.3 mL/min (velocity 41.1 cm/s). Injection of 1 or 2 µL was performed by the auto-sampler.
For the separation of the pairs of enantiomers of the chiral metabolites of 1,8-cineole, four different capillaries (Rt-bDEXsa, Rt-bDEXse, Rt-bDEXsm, and Rt-yDEXsa) were evaluated for optimisation of the peak-to-peak resolution of the enantiomers by injecting a mixture of all the metabolites in a dichloromethane solution and by varying the heating rate. Besides the separation of each pair of enantiomers from each other, it was also important to confirm that no other metabolite coeluted with any one of the enantiomers, because the milk samples would most probably contain all metabolites. Moreover, the separation conditions for the mixture of reference substances were also tested on some human milk sample extracts and modified accordingly, where necessary, to avoid coelution with interfering matrix compounds.
For calculation of the ratio of enantiomers (that is, the relative abundance of each enantiomer to the not separated mixture of enantiomers), the peak area of each enantiomer was divided by the sum of the peak areas of both enantiomers and multiplied by 100. With the known concentrations of the chiral metabolites in each milk sample, the absolute concentration of each single enantiomer was also calculated by multiplying the concentration with the respective percentage.

[4] = set-up: method as in doi:10.1002/cplu.201200253; details: urine after 100 mg 1,8-cineole; cited from earlier work
[5] = sample F (no odour), two capsules

Structure (SMILES): CC12CCC(CC1)C(C)(C)O2 [1,8-cineole, 1,8-Cineole]
Concentration of 1,8-cineole in human milk ([1]; sample A-1a (no odour), beyond calibration range, approximation): 2.43 µg/kg
1,8-cineole: concentration calculated with the last calibration point (limit in parentheses) ([1]; sample A-1a (no odour)): < 13.65 µg/kg
Concentration of 1,8-cineole in human milk ([1]; sample A-1b (odour yes)): 134.72 µg/kg
Concentration of 1,8-cineole in human milk ([1]; sample B-1 (odour yes)): 399.39 µg/kg
Concentration of 1,8-cineole in human milk ([1]; sample B-2a (no odour)): 0.98 µg/kg
Concentration of 1,8-cineole in human milk ([1]; sample B-2b (odour yes)): 70.97 µg/kg
Concentration of 1,8-cineole in human milk ([1]; sample B-2c (no odour)): 14.82 µg/kg
Concentration of 1,8-cineole in human milk ([1]; sample C (no odour)): 13.56 µg/kg
Concentration of 1,8-cineole in human milk ([1]; sample D-1 (no odour), beyond calibration range, approximation): 5.75 µg/kg
1,8-cineole: concentration calculated with the last calibration point (limit in parentheses) ([1]; sample D-1 (no odour)): < 10.59 µg/kg
Concentration of 1,8-cineole in human milk ([1]; sample D-2 (odour yes)): 226.09 µg/kg
Concentration of 1,8-cineole in human milk ([1]; sample E-1 (no odour), beyond calibration range, approximation): 3.19 µg/kg
1,8-cineole: concentration calculated with the last calibration point (limit in parentheses) ([1]; sample E-1 (no odour)): < 13.18 µg/kg
Concentration of 1,8-cineole in human milk ([1]; sample E-2 (odour yes)): 504.93 µg/kg
Concentration of 1,8-cineole in human milk ([1]; sample F (no odour), two capsules, beyond calibration range, approximation): 20.23 µg/kg
1,8-cineole: concentration calculated with the last calibration point (limit in parentheses) [1, 5]: < 26.14 µg/kg
Concentration of 1,8-cineole in human milk ([1]; sample G (odour yes)): 194.46 µg/kg
acute oral LD50 (rats): 2.5 g/kg bodyweight

Estimated maximum level in human milk (concentration calculated with the last calibration point, in parentheses) ([2]; sample A-1a (no odour)): < 1.57 µg/kg
Absolute concentration in human milk ([2]; sample A-1a (no odour), oral 100 mg 1,8-cineole, values given with (<x) lie beyond calibration range, approximation): 0.13 µg/kg
Estimated maximum level in human milk (concentration calculated with the last calibration point, in parentheses) ([2]; sample A-1b (odour yes)): < 1.31 µg/kg
Absolute concentration in human milk ([2]; sample A-1b (odour yes), oral 100 mg 1,8-cineole, values given with (<x) are approximations): 0.53 µg/kg
Estimated maximum level in human milk (concentration calculated with the last calibration point, in parentheses) ([2]; sample B-1 (odour yes)): < 1.89 µg/kg
Absolute concentration in human milk ([2]; sample B-1 (odour yes), oral 100 mg 1,8-cineole, values given with (<x) are approximations): 0.91 µg/kg
Estimated maximum level in human milk (concentration calculated with the last calibration point, in parentheses) ([2]; sample B-2b (odour yes)): < 2.37 µg/kg
Absolute concentration in human milk ([2]; sample B-2b (odour yes), oral 100 mg 1,8-cineole, values given with (<x) are approximations): 0.34 µg/kg
Absolute concentration in human milk ([2]; sample B-2c (no odour), oral 100 mg 1,8-cineole): 0.07 µg/kg
Estimated maximum level in human milk (concentration calculated with the last calibration point, in parentheses) ([2]; sample D-2 (odour yes)): < 2.20 µg/kg
Absolute concentration in human milk ([2]; sample D-2 (odour yes), oral 100 mg 1,8-cineole, values given with (<x) are approximations): 0.85 µg/kg
Estimated maximum level in human milk (concentration calculated with the last calibration point, in parentheses) ([2]; sample E-2 (odour yes)): < 2.03 µg/kg
Absolute concentration in human milk ([2]; sample E-2 (odour yes), oral 100 mg 1,8-cineole, values given with (<x) are approximations): 1.71 µg/kg
Absolute concentration in human milk ([2]; sample F (no odour), parent ingested two capsules, values given with (<x) are approximations): 2.71 µg/kg
Estimated maximum level in human milk (concentration calculated with the last calibration point, in parentheses) [2, 5]: < 3.00 µg/kg
Estimated maximum level in human milk (concentration calculated with the last calibration point, in parentheses) ([2]; sample H (odour yes)): < 2.24 µg/kg
Absolute concentration in human milk ([2]; sample H (odour yes), oral 100 mg 1,8-cineole, values given with (<x) are approximations): 0.86 µg/kg
Percentage E2 in single samples (outliers) [3]: 100%
Structure (SMILES): CC12CCC(CC1=O)C(C)(C)O2 (stereo not shown) [2-oxo-1,8-cineole]
Presence in human urine [4]: could not be found
